Each molecule was assayed against human PAD4 (hPAD4) (Homo sapiens (Human), UniProt Q9UM07) (assay: RFMS Human PAD4 Functional Assay 1). Conditions: RFMS assay 1; 5 nM hPAD4, 250 μM BAEE substrate, 50 μM calcium, 37° C.
Type: biochemical
How it was run: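 Recombinant hPAD4 (5 nM) was preincubated with compound (top 50 μM, 0.5% DMSO) for 30 min at 37 °C, then reacted with 250 μM BAEE for 90 min at 37 °C in pH 7.5 HEPES buffer with 50 μM calcium and 5 μM TPEN. Product was derivatized with phenyl glyoxal and quantified by RapidFire MS.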

human PAD4 (hPAD4), sequence (Q9UM07 whole entry): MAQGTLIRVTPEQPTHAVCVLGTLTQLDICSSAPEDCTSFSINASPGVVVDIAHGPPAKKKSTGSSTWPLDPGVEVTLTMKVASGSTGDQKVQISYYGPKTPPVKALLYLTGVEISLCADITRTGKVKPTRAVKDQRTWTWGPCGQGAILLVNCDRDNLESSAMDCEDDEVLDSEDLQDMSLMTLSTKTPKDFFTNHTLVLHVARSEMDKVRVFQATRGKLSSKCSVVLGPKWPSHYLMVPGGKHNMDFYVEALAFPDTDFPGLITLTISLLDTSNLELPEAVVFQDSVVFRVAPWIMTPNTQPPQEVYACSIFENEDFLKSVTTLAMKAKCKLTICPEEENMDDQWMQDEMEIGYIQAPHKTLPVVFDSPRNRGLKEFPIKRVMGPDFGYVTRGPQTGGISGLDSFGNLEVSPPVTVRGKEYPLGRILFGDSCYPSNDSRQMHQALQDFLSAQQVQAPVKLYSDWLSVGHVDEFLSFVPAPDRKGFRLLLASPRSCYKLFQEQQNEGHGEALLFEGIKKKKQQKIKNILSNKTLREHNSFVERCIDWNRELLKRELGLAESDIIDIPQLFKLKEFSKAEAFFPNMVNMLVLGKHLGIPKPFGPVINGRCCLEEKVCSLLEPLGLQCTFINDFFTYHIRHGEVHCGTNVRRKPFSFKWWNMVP

Structure (SMILES)	IC50
Cc1c(-c2cc3ccc(N4CCC(S(C)(=O)=O)CC4)nc3n2CC2CC2)nn2cc(C(=O)N3CC4CCC3[C@@H]4N)cc(F)c12 (stereo partly drawn) [Example 268, (7R)-2-{2-[1-(Cyclopropylmethyl)-6-(4-methanesulfonylpiperidin-1-yl)-1H-pyrrolo[2,3-b]pyridin-2-yl]-4-fluoro-3-methylpyrazolo[1,5-a]pyridine-6-carbonyl}-2-azabicyclo[2.2.1]heptan-7-amine]	40 nM
Cc1c(-c2cc3ccc(N4CCC5(CC4)CN(C)C(=O)O5)nc3n2CC2CC2)nn2cc(C(=O)N3CCC[C@@H](N)C3)cc(F)c12 [Example 269, 8-(2-{6-[(3R)-3-Aminopiperidine-1-carbonyl]-4-fluoro-3-methylpyrazolo[1,5-a]pyridin-2-yl}-1-(cyclopropylmethyl)-1H-pyrrolo[2,3-b]pyridin-6-yl)-3-methyl-1-oxa-3,8-diazaspiro[4.5]decan-2-one]	540 nM
Cc1c(-c2cc3ccc(N4CCC(S(C)(=O)=O)CC4)nc3n2CC2CC2)nn2cc(C(=O)N3CCC[C@@H](N)C3)cc(F)c12 [Example 270, (3R)-1-{2-[1-(Cyclopropylmethyl)-6-(4-methanesulfonylpiperidin-1-yl)-1H-pyrrolo[2,3-b]pyridin-2-yl]-4-fluoro-3-methylpyrazolo[1,5-a]pyridine-6-carbonyl}piperidin-3-amine]	2110 nM
CC(=O)N(C)C1CCN(c2ccc3cc(-c4nn5cc(C(=O)N6CCC[C@@H](N)C6)cc(F)c5c4C)n(CC4CC4)c3n2)CC1 [Example 271, N-[1-(2-{6-[(3R)-3-Aminopiperidine-1-carbonyl]-4-fluoro-3-methylpyrazolo[1,5-a]pyridin-2-yl}-1-(cyclopropylmethyl)-1H-pyrrolo[2,3-b]pyridin-6-yl)piperidin-4-yl]-N-methylacetamide]	2070 nM
COC(=O)N(C)C1CCN(c2ccc3cc(-c4nn5cc(C(=O)N6CCC[C@@H](N)C6)cc(F)c5c4C)n(CC4CC4)c3n2)CC1 [Example 272, Methyl N-[1-(2-{6-[(3R)-3-aminopiperidine-1-carbonyl]-4-fluoro-3-methylpyrazolo[1,5-a]pyridin-2-yl}-1-(cyclopropylmethyl)-1H-pyrrolo[2,3-b]pyridin-6-yl)piperidin-4-yl]-N-methylcarbamate]	3810 nM
Cc1c(-c2cc3ccc(N4CCC(N5CCCC5=O)CC4)nc3n2CC2CC2)nn2cc(C(=O)N3CCC[C@@H](N)C3)cc(F)c12 [Example 273, 1-[1-(2-{6-[(3R)-3-Aminopiperidine-1-carbonyl]-4-fluoro-3-methylpyrazolo[1,5-a]pyridin-2-yl}-1-(cyclopropylmethyl)-1H-pyrrolo[2,3-b]pyridin-6-yl)piperidin-4-yl]pyrrolidin-2-one]	2420 nM
Cc1c(-c2cc3ccc(OC[C@@H]4CCC(=O)N4)nc3n2CC2CC2)nn2cc(C(=O)N3CC4CCC3[C@@H]4N)cc(F)c12 (stereo partly drawn) [Example 274, (5S)-5-{[(2-{6-[(7R)-7-Amino-2-azabicyclo[2.2.1]heptane-2-carbonyl]-4-fluoro-3-methylpyrazolo[1,5-a]pyridin-2-yl}-1-(cyclopropylmethyl)-1H-pyrrolo[2,3-b]pyridin-6-yl)oxy]methyl}pyrrolidin-2-one]	270 nM
COC1CCN(c2ccc3cc(-c4nn5cc(C(=O)N6CCC[C@@H](N)C6)cc(Cl)c5c4C)n(CC4CC4)c3n2)CC1 [Example 276, (3R)-1-{4-Chloro-2-[1-(cyclopropylmethyl)-6-(4-methoxypiperidin-1-yl)-1H-pyrrolo[2,3-b]pyridin-2-yl]-3-methylpyrazolo[1,5-a]pyridine-6-carbonyl}piperidin-3-amine]	2770 nM
Cc1cc(C(N)=O)c(F)cc1-c1ccc2cc(-c3nn4cc(C(=O)N5CCC[C@@H](N)C5)cc(F)c4c3C)n(CC3CC3)c2n1 [Example 277, 4-(2-{6-[(3R)-3-Aminopiperidine-1-carbonyl]-4-fluoro-3-methylpyrazolo[1,5-a]pyridin-2-yl}-1-(cyclopropylmethyl)-1H-pyrrolo[2,3-b]pyridin-6-yl)-2-fluoro-5-methylbenzamide]	220 nM
Cc1c(-c2cc3ccc(-c4cccc(O)c4Cl)nc3n2CC2CC2)nn2cc(C(=O)N3CCC[C@@H](N)C3)cc(F)c12 [Example 278, 3-(2-{6-[(3R)-3-Aminopiperidine-1-carbonyl]-4-fluoro-3-methylpyrazolo[1,5-a]pyridin-2-yl}-1-(cyclopropylmethyl)-1H-pyrrolo[2,3-b]pyridin-6-yl)-2-chlorophenol]	390 nM
Cc1c(-c2cc3ccc(-c4ccc(C(N)=O)c(F)c4)nc3n2CC2CC2)nn2cc(C(=O)N3CCC[C@@H](N)C3)cc(F)c12 [Example 279, 4-(2-{6-[(3R)-3-Aminopiperidine-1-carbonyl]-4-fluoro-3-methylpyrazolo[1,5-a]pyridin-2-yl}-1-(cyclopropylmethyl)-1H-pyrrolo[2,3-b]pyridin-6-yl)-2-fluorobenzamide]	200 nM

The remaining lines, values ahead:

IC50	Structure (SMILES)
1090 nM	Cc1c(-c2cc3ccc(-c4ccc(N5CCNC5=O)cc4)nc3n2CC2CC2)nn2cc(C(=O)N3CCC[C@@H](N)C3)cc(F)c12 [Example 280, 1-[4-(2-{6-[(3R)-3-Aminopiperidine-1-carbonyl]-4-fluoro-3-methylpyrazolo[1,5-a]pyridin-2-yl}-1-(cyclopropylmethyl)-1H-pyrrolo[2,3-b]pyridin-6-yl)phenyl]imidazolidin-2-one]
140 nM	Cc1c(-c2cc3ccc(-c4ccccc4N4CCNC4=O)nc3n2CC2CC2)nn2cc(C(=O)N3CCC[C@@H](N)C3)cc(F)c12 [Example 281, 1-[2-(2-{6-[(3R)-3-Aminopiperidine-1-carbonyl]-4-fluoro-3-methylpyrazolo[1,5-a]pyridin-2-yl}-1-(cyclopropylmethyl)-1H-pyrrolo[2,3-b]pyridin-6-yl)phenyl]imidazolidin-2-one]
170 nM	Cc1c(O)cccc1-c1ccc2cc(-c3nn4cc(C(=O)N5CCC[C@@H](N)C5)cc(F)c4c3C)n(CC3CC3)c2n1 [Example 282, 3-(2-{6-[(3R)-3-Aminopiperidine-1-carbonyl]-4-fluoro-3-methylpyrazolo[1,5-a]pyridin-2-yl}-1-(cyclopropylmethyl)-1H-pyrrolo[2,3-b]pyridin-6-yl)-2-methylphenol]
330 nM	Cc1c(-c2cc3ccc(-c4cccc(O)c4F)nc3n2CC2CC2)nn2cc(C(=O)N3CCC[C@@H](N)C3)cc(F)c12 [Example 283, 3-(2-{6-[(3R)-3-Aminopiperidine-1-carbonyl]-4-fluoro-3-methylpyrazolo[1,5-a]pyridin-2-yl}-1-(cyclopropylmethyl)-1H-pyrrolo[2,3-b]pyridin-6-yl)-2-fluorophenol]
1860 nM	Cc1c(-c2cc3ccc(-c4ccc5c(c4)CNC5=O)nc3n2CC2CC2)nn2cc(C(=O)N3CCC[C@@H](N)C3)cc(F)c12 [Example 284, 5-(2-{6-[(3R)-3-Aminopiperidine-1-carbonyl]-4-fluoro-3-methylpyrazolo[1,5-a]pyridin-2-yl}-1-(cyclopropylmethyl)-1H-pyrrolo[2,3-b]pyridin-6-yl)-2,3-dihydro-1H-isoindol-1-one]
1270 nM	Cc1c(-c2cc3ccc(-c4ccc5c(c4)C(=O)NC5)nc3n2CC2CC2)nn2cc(C(=O)N3CCC[C@@H](N)C3)cc(F)c12 [Example 285, 6-(2-{6-[(3R)-3-Aminopiperidine-1-carbonyl]-4-fluoro-3-methylpyrazolo[1,5-a]pyridin-2-yl}-1-(cyclopropylmethyl)-1H-pyrrolo[2,3-b]pyridin-6-yl)-2,3-dihydro-1H-isoindol-1-one]
